Read-outs that look alike come from different tables or passages of the source. Positions of bridges follow the written chain, without caps; N, C: chain ends. Residues, ends and D or L forms follow the SMILES beside them.
Assay: Phase I clinical trial: plasma pharmacokinetics of the peptide
Format: in vivo, human
Settings: for Dose Proportionality Day 1 AUC(0-tlast)/Dose / Dose Proportionality Day 1 Cmax/Dose / Dose Proportionality Day 7 AUC(0-τ)/Dose / Dose Proportionality Day 7 Cmax/Dose / Tmax / Cmax / half-life / AUC(0-t) / AUC / AUC(0-inf) / Vd/F / CL/F: plasma; for Tmax / Cmax / half-life / AUC(0-t) / AUC / AUC(0-inf) / Vd/F / CL/F: human, sc; for AUC(0-t): read-out: AUC(0-tlast); for AUC: read-out: AUC(0-τ); for Vd/F: read-out: Vz/F
Protocol: A Phase I, single-center, randomized double blind, placebo-controlled, multiple-escalating-dose study in healthy older volunteers was carried out for the peptide [Leu^27]cyclo(Glu^22-Lys^2 1)-hPTH-(1-31)-NH2 (SEQ ID NO: 4). Subjects were healthy males and females (non-reproductive potential), aged 40 to 65 years. […] […] For each dosage level, 2 subjects (I male and I female) received placebo and 6 subjects (3 males and 3 females) received the peptide daily.
Pharmacokinetics. Plasma concentrations of the peptide were analyzed using the WinNonlin 4.0 Noncompartmental module (Pharsight Inc., Mountainview, Calif.) or equivalent. The following pharmacokinetic parameters were computed from the peptide plasma concentration-time data (See FIGS. 4 and 5): • AUC(0-tlast): The area under the plasma concentration versus time curve, from time 0 to the last measurable concentration, as calculated by the linear trapezoidal method (Day 1). • AUC(0-τ): The area under the plasma concentration versus time curve, from time 0 to the last measurable concentration, as calculated by the linear trapezoidal method (Day 7). • AUC(0-∞) or AUCinf: The area under the plasma concentration versus time curve from time 0 to infinity. AUC(0-∞) is calculated as the sum of the AUC(0-tlast) plus the ratio of the last measurable plasma concentration to the elimination rate constant (Clast/kel), where Clast is the predicted concentration at the time of the last measurable concentration, as determined by linear regression, and kel is the apparent first-order elimination rate constant (Day 1). • AUC/AUCinf: The ratio of AUC(0-tlast) to AUC(0-∞). • Cmax: Maximum measured plasma concentration over the time span specified. • Tmax: Time of the maximum measured plasma concentration. If the maximum value occurs at more than one time point, Tmax is defined as the first time point with this value. • kel: Apparent first-order terminal elimination rate constant calculated from a semi-log plot of the plasma concentration versus time curve. This parameter was calculated by linear least squares regression analysis using the maximum number of points in the terminal log-linear phase (e.g. three or more non-zero plasma concentrations). • t1/2: The apparent first-order terminal elimination half-life was calculated as 0.693/kel. • Vz/F: Apparent volume of distribution of a drug following subcutaneous administration, calculated as Dose/( AUC(0-∞)·kel), (Day 1). • CL/F: Apparent total body clearance of a drug following […], calculated as Dose/AUC(0-∞), (Day 1).
Accumulation Index: Calculated as AUC(0-τ) Day 7/AUC(0-tlast) Day 1.

[1] = both sexes, 10 ug, Day 1, 10 μg s.c., geometric mean (CV %)
[2] = both sexes, 10 ug, Day 7, 10 μg s.c. daily, geometric mean (CV %)
[3] = both sexes, 20 ug, Day 1, 20 μg s.c., geometric mean (CV %)
[4] = both sexes, 20 ug, Day 7, 20 μg s.c. daily, geometric mean (CV %)
[5] = both sexes, 40 ug, Day 1, 40 μg s.c., geometric mean (CV %)
[6] = both sexes, 40 ug, Day 7, 40 μg s.c. daily, geometric mean (CV %)
[7] = both sexes, 60 ug, Day 1, 60 μg s.c., arithmetic mean (CV %)
[8] = both sexes, 60 ug, Day 1, 60 μg s.c., geometric mean (CV %)
[9] = both sexes, 60 ug, Day 7, 60 μg s.c. daily, geometric mean (CV %)
[10] = both sexes, 80 ug, Day 1, 80 μg s.c., arithmetic mean (CV %)
[11] = both sexes, 80 ug, Day 1, 80 μg s.c., geometric mean (CV %)
[12] = both sexes, 80 ug, Day 7, 80 μg s.c. daily, geometric mean (CV %)
[13] = both sexes, 20 ug, Day 1, 20 μg s.c., n = 1
[14] = both sexes, 40 ug, Day 1, 40 μg s.c., n = 1

accumulation (20 μg, 60 μg and 80 μg dose levels): no observed accumulation
Dose Proportionality Day 1 AUC(0-tlast)/Dose (Dose Level 10 μg): 1.08
Dose Proportionality Day 1 Cmax/Dose (Dose Level 10 μg): 2.35
Dose Proportionality Day 7 AUC(0-τ)/Dose (Dose Level 10 μg): 2.06
Dose Proportionality Day 7 Cmax/Dose (Dose Level 10 μg): 3.13
Dose Proportionality Day 1 AUC(0-tlast)/Dose (Dose Level 20 μg): 1.10
Dose Proportionality Day 1 Cmax/Dose (Dose Level 20 μg): 1.66
Dose Proportionality Day 7 AUC(0-τ)/Dose (Dose Level 20 μg): 1.14
Dose Proportionality Day 7 Cmax/Dose (Dose Level 20 μg): 1.95
Dose Proportionality Day 1 AUC(0-tlast)/Dose (Dose Level 30 μg): 3.30
Dose Proportionality Day 1 Cmax/Dose (Dose Level 30 μg): 2.92
Dose Proportionality Day 7 AUC(0-τ)/Dose (Dose Level 30 μg): 3.58
Dose Proportionality Day 7 Cmax/Dose (Dose Level 30 μg): 3.18
Dose Proportionality Day 1 AUC(0-tlast)/Dose (Dose Level 40 μg): 1.89
Dose Proportionality Day 1 Cmax/Dose (Dose Level 40 μg): 2.68
Dose Proportionality Day 7 AUC(0-τ)/Dose (Dose Level 40 μg): 2.68
Dose Proportionality Day 7 Cmax/Dose (Dose Level 40 μg): 3.19
Dose Proportionality Day 1 AUC(0-tlast)/Dose (Dose Level 60 μg): 1.61
Dose Proportionality Day 1 Cmax/Dose (Dose Level 60 μg): 1.85
Dose Proportionality Day 7 AUC(0-τ)/Dose (Dose Level 60 μg): 1.96
Dose Proportionality Day 7 Cmax/Dose (Dose Level 60 μg): 2.21
Tmax (both sexes, 10 ug, Day 1, 10 μg s.c., arithmetic mean (CV %)): 15 min
Cmax [1]: 0.0235 ng/mL
Tmax (both sexes, 10 ug, Day 7, 10 μg s.c. daily, arithmetic mean (CV %)): 15 min
Cmax [2]: 0.0313 ng/mL
Tmax (both sexes, 20 ug, Day 1, 20 μg s.c., arithmetic mean (CV %)): 20 min
Cmax [3]: 0.0332 ng/mL
Tmax (both sexes, 20 ug, Day 7, 20 μg s.c. daily, arithmetic mean (CV %)): 25 min
Cmax [4]: 0.0391 ng/mL
Tmax (both sexes, 40 ug, Day 1, 40 μg s.c., arithmetic mean (CV %)): 20.3 min
Cmax [5]: 0.107 ng/mL
Tmax (both sexes, 40 ug, Day 7, 40 μg s.c. daily, arithmetic mean (CV %)): 15 min
Cmax [6]: 0.128 ng/mL
Tmax [7]: 17.6 min
Cmax [8]: 0.111 ng/mL
Tmax (both sexes, 60 ug, Day 7, 60 μg s.c. daily, arithmetic mean (CV %)): 15 min
Cmax [9]: 0.133 ng/mL
Tmax [10]: 24 min
Cmax [11]: 0.234 ng/mL
Tmax (both sexes, 80 ug, Day 7, 80 μg s.c. daily, arithmetic mean (CV %)): 15.7 min
Cmax [12]: 0.254 ng/mL
half-life (both sexes, from 20 μg dose to 80 μg dose, s.c., read-out: mean t1/2 across dose groups): 32.8 to 46.7 min
AUC(0-t) [1]: 0.0108 ng·h/mL
AUC [2]: 0.0206 ng·h/mL
AUC(0-t) [3]: 0.022 ng·h/mL
AUC(0-inf) [13]: 0.092 ng·h/mL
Vd/F [13]: 171 L
half-life (both sexes, 20 ug, Day 1, 20 μg s.c., n = 1, read-out: t½ (converted)): 32.8 min
AUC [4]: 0.0228 ng·h/mL
AUC(0-t) [5]: 0.0755 ng·h/mL
AUC(0-inf) [14]: 0.134 ng·h/mL
Vd/F [14]: 247 L
half-life (both sexes, 40 ug, Day 1, 40 μg s.c., n = 1, read-out: t½ (converted)): 34.6 min
AUC [6]: 0.107 ng·h/mL
CL/F [7]: 7770 mL/min
Vd/F [7]: 477 L
AUC(0-inf) [8]: 0.139 ng·h/mL
AUC(0-t) [8]: 0.0965 ng·h/mL
half-life (both sexes, 60 ug, Day 1, 60 μg s.c., mean (CV %), read-out: t½ (converted)): 41.8 min
AUC [9]: 0.118 ng·h/mL
CL/F [10]: 5230 mL/min
Vd/F [10]: 361 L
AUC(0-inf) [11]: 0.257 ng·h/mL
AUC(0-t) [11]: 0.264 ng·h/mL
half-life (both sexes, 80 ug, Day 1, 80 μg s.c., mean (CV %), read-out: t½ (converted)): 46.7 min
AUC [12]: 0.286 ng·h/mL
CL/F (20 ug, Day 1, 20 μg s.c., n = 1): 3620 mL/min
CL/F (40 ug, Day 1, 40 μg s.c., n = 1): 4970 mL/min
dose proportionality of AUC(0-∞) (Day 1), AUC(0-τ) (Day 7), Cmax (Day 1) and Cmax (Day 7) (increasing dose from 10 μg to 80 μg): dose proportional
pharmacokinetic behavior, comparison AUC(0-τ) Day 7/AUC(0-∞) Day 1 (once-daily subcutaneous administration for 7 days of 60 μg and 80 μg doses): linear
SMILES: CC[C@H](C)[C@H](NC(=O)[C@H](CCC(=O)O)NC(=O)[C@H](CO)NC(=O)[C@@H](NC(=O)[C@@H](N)CO)C(C)C)C(=O)N[C@@H](CCC(N)=O)C(=O)N[C@@H](CC(C)C)C(=O)N[C@@H](CCSC)C(=O)N[C@@H](Cc1c[nH]cn1)C(=O)N[C@@H](CC(N)=O)C(=O)N[C@@H](CC(C)C)C(=O)NCC(=O)N[C@@H](CCCCN)C(=O)N[C@@H](Cc1c[nH]cn1)C(=O)N[C@@H](CC(C)C)C(=O)N[C@@H](CC(N)=O)C(=O)N[C@@H](CO)C(=O)N[C@@H](CCSC)C(=O)N[C@@H](CCC(=O)O)C(=O)N[C@@H](CCCN=C(N)N)C(=O)N[C@H](C(=O)N[C@H]1CCC(=O)NCCCC[C@@H](C(=O)N[C@@H](CC(C)C)C(=O)N[C@@H](CC(C)C)C(=O)N[C@@H](CCC(N)=O)C(=O)N[C@@H](CC(=O)O)C(=O)N[C@H](C(N)=O)C(C)C)NC(=O)[C@H](CCCN=C(N)N)NC(=O)[C@H](CC(C)C)NC(=O)[C@H](Cc2c[nH]c3ccccc23)NC1=O)C(C)C [[Leu^27]cyclo(Glu^22-Lys^26)-hPTH-(1-31)-NH2] (H-SVSEIQLMHNLGKHLNSMERVEWLRKLLQDV-NH2; lactam 22-26)
